ChEMBL document CHEMBL1201862, “PubChem BioAssay data set” (2004)
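Cultured in 96-well plates, cells were exposed to test compound for 48 hours across five concentrations. Here, GI50 denotes the concentration required for 50% inhibition of growth.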 The source made the active and inactive calls. No stated cut-off is given here; in the data, active = GI50 up to about 1.1 µM and inactive = higher.

Key:
Assay in all cases: NCI anticancer screen, dose series, 48 h
DLD-1 = test system: DLD-1
RXF 631 = test system: RXF 631
SK-MEL-2 = test system: SK-MEL-2
K562 = test system: K562
NCI-H23 = test system: NCI-H23
LOX IMVI = test system: LOX IMVI
M19-MEL = test system: M19-MEL
A549 = test system: A549
RXF 393 = test system: RXF 393
RPMI-8226 = test system: RPMI-8226
786-0 = test system: 786-0
SK-MEL-5 = test system: SK-MEL-5
SNB-75 = test system: SNB-75
EKVX = test system: EKVX
HL-60 = test system: HL-60
COLO 205 = test system: COLO 205
HOP-62 = test system: HOP-62
SR = test system: SR
DMS-273 = test system: DMS-273
NCI-H522 = test system: NCI-H522
HOP-92 = test system: HOP-92
KM-20L2 = test system: KM-20L2
DMS-114 = test system: DMS-114
SF-539 = test system: SF-539
SF-268 = test system: SF-268
OVCAR-3 = test system: OVCAR-3
SK-MEL-28 = test system: SK-MEL-28
Malme-3M = test system: Malme-3M
SNB-19 = test system: SNB-19
HCT-116 = test system: HCT-116
OVCAR-4 = test system: OVCAR-4
NCI-H226 = test system: NCI-H226
MOLT-4 = test system: MOLT-4
HCT-15 = test system: HCT-15
SNB-78 = test system: SNB-78
UACC-257 = test system: UACC-257
SK-OV-3 = test system: SK-OV-3
KM12 = test system: KM12
HT-29 = test system: HT-29
OVCAR-8 = test system: OVCAR-8
CCRF-CEM = test system: CCRF-CEM
M14 = test system: M14
IGROV-1 = test system: IGROV-1
HOP-18 = test system: HOP-18
SF-295 = test system: SF-295
UO-31 = test system: UO-31
A498 = test system: A498
SN12C = test system: SN12C
ACHN = test system: ACHN
CAKI-1 = test system: CAKI-1
TK-10 = test system: TK-10
NCI-H460 = test system: NCI-H460
HCC 2998 = test system: HCC 2998
U-251 = test system: U-251
OVCAR-5 = test system: OVCAR-5
LXFL 529 = test system: LXFL 529
UACC-62 = test system: UACC-62
SW-620 = test system: SW-620
XF498 = test system: XF498

COC(=O)C(/C(=N\O)C(=O)Nc1ccc(Br)cc1)c1nc2ccccc2nc1O (stereo unspecified)
GI50 (DLD-1): 35.2 µM (inactive)
GI50 (RXF 631): 46.9 µM (inactive)
GI50 (SK-MEL-2): 23 µM (inactive)
GI50 (K562): 26.4 µM (inactive)
GI50 (NCI-H23): > 100 µM (inactive)
GI50 (LOX IMVI): 22.7 µM (inactive)
GI50 (M19-MEL): 26.1 µM (inactive)
GI50 (A549): > 100 µM (inactive)
GI50 (RXF 393): 36.7 µM (inactive)
GI50 (RPMI-8226): 26.9 µM (inactive)
GI50 (786-0): 31 µM (inactive)
GI50 (SK-MEL-5): 28.6 µM (inactive)
GI50 (SNB-75): 23.6 µM (inactive)
GI50 (EKVX): 67.3 µM (inactive)
GI50 (HL-60): 21.8 µM (inactive)
GI50 (COLO 205): 18.5 µM (inactive)
GI50 (HOP-62): 28.4 µM (inactive)
GI50 (SR): 18.2 µM (inactive)
GI50 (DMS-273): 31.1 µM (inactive)
GI50 (NCI-H522): 17.1 µM (inactive)
GI50 (HOP-92): 35.4 µM (inactive)
GI50 (KM-20L2): 44 µM (inactive)
GI50 (DMS-114): 20.9 µM (inactive)
GI50 (SF-539): 24.4 µM (inactive)
GI50 (SF-268): 39.2 µM (inactive)
GI50 (OVCAR-3): 23.1 µM (inactive)
GI50 (SK-MEL-28): 36.7 µM (inactive)
GI50 (Malme-3M): 45.1 µM (inactive)
GI50 (SNB-19): 78.2 µM (inactive)
GI50 (HCT-116): 55.8 µM (inactive)
GI50 (OVCAR-4): 64.7 µM (inactive)
GI50 (NCI-H226): 29 µM (inactive)
GI50 (MOLT-4): 26.1 µM (inactive)
GI50 (HCT-15): 64.7 µM
GI50 (SNB-78): 96.6 µM (inactive)
GI50 (UACC-257): > 100 µM (inactive)
GI50 (SK-OV-3): > 100 µM (inactive)
GI50 (KM12): > 100 µM (inactive)
GI50 (HT-29): 57.1 µM (inactive)
GI50 (OVCAR-8): > 100 µM (inactive)
GI50 (CCRF-CEM): 25.3 µM (inactive)
GI50 (M14): 58.9 µM (inactive)
GI50 (IGROV-1): 19 µM (inactive)
GI50 (HOP-18): 52.4 µM (inactive)
GI50 (SF-295): > 100 µM (inactive)
GI50 (UO-31): > 100 µM (inactive)
GI50 (A498): 61 µM (inactive)
GI50 (SN12C): 35.8 µM (inactive)
GI50 (ACHN): 49.2 µM (inactive)
GI50 (CAKI-1): > 100 µM (inactive)
GI50 (TK-10): > 10 µM (inactive)
GI50 (NCI-H460): 89.9 µM (inactive)
GI50 (HCC 2998): 92 µM (inactive)
GI50 (U-251): 34 µM (inactive)
GI50 (OVCAR-5): > 100 µM (inactive)
GI50 (LXFL 529): 28.6 µM (inactive)
GI50 (UACC-62): 26.9 µM (inactive)

CC(=O)OCc1nnn2c1C(OC(C)=O)CC2 (stereo unspecified)
GI50 (DLD-1): > 100 µM (inactive)
GI50 (RXF 631): > 100 µM (inactive)
GI50 (SK-MEL-2): > 100 µM (inactive)
GI50 (SW-620): > 100 µM (inactive)
GI50 (K562): > 100 µM (inactive)
GI50 (NCI-H23): > 100 µM (inactive)
GI50 (M19-MEL): > 100 µM (inactive)
GI50 (A549): > 100 µM (inactive)
GI50 (RXF 393): > 100 µM (inactive)
GI50 (RPMI-8226): > 100 µM (inactive)
GI50 (786-0): > 100 µM (inactive)
GI50 (SK-MEL-5): > 100 µM (inactive)
GI50 (SNB-75): 20.1 µM (inactive)
GI50 (EKVX): > 100 µM (inactive)
GI50 (COLO 205): > 100 µM (inactive)
GI50 (SR): > 100 µM (inactive)
GI50 (DMS-273): > 100 µM (inactive)
GI50 (XF498): > 100 µM (inactive)
GI50 (NCI-H522): > 100 µM (inactive)
GI50 (HOP-92): > 100 µM (inactive)
GI50 (KM-20L2): > 100 µM (inactive)
GI50 (DMS-114): > 100 µM (inactive)
GI50 (SF-539): > 100 µM (inactive)
GI50 (OVCAR-3): > 100 µM (inactive)
GI50 (SK-MEL-28): > 100 µM (inactive)
GI50 (Malme-3M): > 100 µM (inactive)
GI50 (SNB-19): > 100 µM (inactive)
GI50 (HCT-116): > 100 µM (inactive)
GI50 (OVCAR-4): > 100 µM (inactive)
GI50 (NCI-H226): > 100 µM (inactive)
GI50 (MOLT-4): > 100 µM (inactive)
GI50 (HCT-15): > 100 µM
GI50 (SNB-78): > 100 µM (inactive)
GI50 (UACC-257): > 100 µM (inactive)
GI50 (SK-OV-3): > 100 µM (inactive)
GI50 (KM12): > 100 µM (inactive)
GI50 (HT-29): > 100 µM (inactive)
GI50 (OVCAR-8): > 100 µM (inactive)
GI50 (M14): > 100 µM (inactive)
GI50 (IGROV-1): > 100 µM (inactive)
GI50 (SF-295): > 100 µM (inactive)
GI50 (UO-31): > 100 µM (inactive)
GI50 (SN12C): > 100 µM (inactive)
GI50 (ACHN): > 100 µM (inactive)
GI50 (CAKI-1): > 100 µM (inactive)
GI50 (TK-10): > 100 µM (inactive)
GI50 (NCI-H460): > 100 µM (inactive)
GI50 (HCC 2998): > 100 µM (inactive)
GI50 (U-251): > 100 µM (inactive)
GI50 (OVCAR-5): > 100 µM (inactive)
GI50 (LXFL 529): > 100 µM (inactive)
GI50 (UACC-62): > 100 µM (inactive)

Cc1ccc2c(c1-c1ccccc1)C(=O)OC2
GI50 (DLD-1): > 100 µM (inactive)
GI50 (RXF 631): > 100 µM (inactive)
GI50 (SK-MEL-2): > 100 µM (inactive)
GI50 (SW-620): > 100 µM (inactive)
GI50 (K562): 56.1 µM (inactive)
GI50 (NCI-H23): > 100 µM (inactive)
GI50 (M19-MEL): > 100 µM (inactive)
GI50 (A549): > 100 µM (inactive)
GI50 (RXF 393): > 100 µM (inactive)
GI50 (RPMI-8226): > 100 µM (inactive)
GI50 (786-0): > 100 µM (inactive)
GI50 (SK-MEL-5): > 100 µM (inactive)
GI50 (SNB-75): > 100 µM (inactive)
GI50 (EKVX): 17.1 µM (inactive)
GI50 (HL-60): > 100 µM (inactive)
GI50 (COLO 205): > 100 µM (inactive)
GI50 (HOP-62): > 100 µM (inactive)
GI50 (SR): 90.6 µM (inactive)
GI50 (DMS-273): > 100 µM (inactive)
GI50 (NCI-H522): > 100 µM (inactive)
GI50 (KM-20L2): 20.4 µM (inactive)
GI50 (DMS-114): 99.3 µM (inactive)
GI50 (SF-268): > 100 µM (inactive)
GI50 (OVCAR-3): 76.7 µM (inactive)
GI50 (SK-MEL-28): > 100 µM (inactive)
GI50 (Malme-3M): > 100 µM (inactive)
GI50 (SNB-19): > 100 µM (inactive)
GI50 (HCT-116): > 100 µM (inactive)
GI50 (OVCAR-4): > 100 µM (inactive)
GI50 (NCI-H226): > 100 µM (inactive)
GI50 (MOLT-4): 94.4 µM (inactive)
GI50 (HCT-15): > 100 µM
GI50 (SNB-78): 37 µM (inactive)
GI50 (UACC-257): > 100 µM (inactive)
GI50 (SK-OV-3): > 100 µM (inactive)
GI50 (KM12): > 100 µM (inactive)
GI50 (HT-29): > 100 µM (inactive)
GI50 (OVCAR-8): > 100 µM (inactive)
GI50 (CCRF-CEM): > 100 µM (inactive)
GI50 (M14): > 100 µM (inactive)
GI50 (IGROV-1): > 100 µM (inactive)
GI50 (HOP-18): > 100 µM (inactive)
GI50 (UO-31): 75 µM (inactive)
GI50 (A498): > 100 µM (inactive)
GI50 (SN12C): > 100 µM (inactive)
GI50 (ACHN): > 100 µM (inactive)
GI50 (CAKI-1): > 100 µM (inactive)
GI50 (TK-10): > 100 µM (inactive)
GI50 (HCC 2998): > 100 µM (inactive)
GI50 (U-251): > 100 µM (inactive)
GI50 (LXFL 529): > 100 µM (inactive)
GI50 (UACC-62): 28.7 µM (inactive)
